From ChEMBL document CHEMBL5550169, “A consensus reverse docking approach for identification of a competitive inhibitor of acetyltransferase enhanced intracellular survival protein from Mycobacterium tuberculosis” (Bioorg Med Chem, 2024)
In brackets after ≈: the same amount, converted by molar mass.

Experiments:
[1] = test system: Mycobacterium tuberculosis; experiment: Antibacterial activity against Mycobacterium tuberculosis H37Rv assessed as reduction in pellet formation measured after 7 to 14 days by alamar blue assay; assay type: functional; settings: time 7-14 day
[2] = test system: Mycobacterium tuberculosis; experiment: Antibacterial activity against Mycobacterium tuberculosis IAR2 assessed as reduction in pellet formation measured after 7 to 14 days by alamar blue assay; assay type: functional; settings: time 7-14 day
[3] = Cmax in female BALB/c mouse plasma at 100 mg/kg, po administered as single dose via oral gavage and measured upto 24 hrs by LC-MS analysis; assay type: ADME, organism-based
[4] = Tmax in female BALB/c mouse plasma at 100 mg/kg, po administered as single dose via oral gavage and measured upto 24 hrs by LC-MS analysis; assay type: ADME, organism-based
[5] = Cmax in female BALB/c mouse lungs at 100 mg/kg, po administered as single dose via oral gavage and measured upto 24 hrs by LC-MS analysis; assay type: ADME, organism-based; settings: lung
[6] = Tmax in female BALB/c mouse lungs at 100 mg/kg, po administered as single dose via oral gavage and measured upto 24 hrs by LC-MS analysis; assay type: ADME, organism-based; settings: lung
[7] = test system: Mycobacterium tuberculosis; experiment: Antibacterial activity against Mycobacterium tuberculosis H37Ra measured after 7 days by resazurin reduction microplate assay; assay type: functional; settings: 168 h, time 7 day
[8] = test system: Mycobacterium tuberculosis; experiment: Antibacterial activity against Mycobacterium tuberculosis H37Ra measured after 7 days in presence of isoniazid by resazurin reduction microplate assay based checkerboard assay; assay type: functional; settings: 168 h, time 7 day
[9] = test system: Mycobacterium tuberculosis; experiment: Antibacterial activity against Mycobacterium tuberculosis H37Ra measured after 7 days in presence of rifampicin by resazurin reduction microplate assay based checkerboard assay; assay type: functional; settings: 168 h, time 7 day
[10] = test system: Mycobacterium tuberculosis; experiment: Antibacterial activity against Mycobacterium tuberculosis H37Ra measured after 7 days in presence of ethambutol by resazurin reduction microplate assay based checkerboard assay; assay type: functional; settings: 168 h, time 7 day
[11] = test system: Mycobacterium tuberculosis; experiment: Antibacterial activity against Mycobacterium tuberculosis H37Ra measured after 7 days in presence of moxifloxacin by resazurin reduction microplate assay based checkerboard assay; assay type: functional; settings: 168 h, time 7 day
[12] = test system: Mycobacterium tuberculosis; experiment: Additive antibacterial activity against Mycobacterium tuberculosis H37Ra assessed as isoniazid MIC at 3 to 50 uM measured after 7 days by resazurin reduction microplate assay based checkerboard assay; assay type: functional; settings: 168 h, dose 3-50 µM, time 7 day
[13] = test system: Mycobacterium tuberculosis; experiment: Additive antibacterial activity against Mycobacterium tuberculosis H37Ra assessed as rifampicin MIC at 3 to 50 uM measured after 7 days by resazurin reduction microplate assay based checkerboard assay; assay type: functional; settings: 168 h, dose 3-50 µM, time 7 day
[14] = test system: Mycobacterium tuberculosis; experiment: Additive antibacterial activity against Mycobacterium tuberculosis H37Ra assessed as ethambutol MIC at 3 to 50 uM measured after 7 days by resazurin reduction microplate assay based checkerboard assay; assay type: functional; settings: 168 h, dose 3-50 µM, time 7 day
[15] = test system: Mycobacterium tuberculosis; experiment: Additive antibacterial activity against Mycobacterium tuberculosis H37Ra assessed as moxifloxacin MIC at 3 to 50 uM measured after 7 days by resazurin reduction microplate assay based checkerboard assay; assay type: functional; settings: 168 h, dose 3-50 µM, time 7 day
[16] = test system: Mycobacterium tuberculosis; experiment: Additive antibacterial activity against Mycobacterium tuberculosis H37Ra assessed as fractional inhibitory concentration index at 3 to 50 uM measured after 7 days in presence of isoniazid by resazurin reduction microplate assay based checkerboard assay; assay type: functional; settings: dose 3-50 µM; time 7 day
[17] = test system: Mycobacterium tuberculosis; experiment: Additive antibacterial activity against Mycobacterium tuberculosis H37Ra assessed as fractional inhibitory concentration index at 3 to 50 uM measured after 7 days in presence of rifampicin by resazurin reduction microplate assay based checkerboard assay; assay type: functional; settings: dose 3-50 µM; time 7 day
[18] = test system: Mycobacterium tuberculosis; experiment: Additive antibacterial activity against Mycobacterium tuberculosis H37Ra assessed as fractional inhibitory concentration index at 3 to 50 uM measured after 7 days in presence of ethambutol by resazurin reduction microplate assay based checkerboard assay; assay type: functional; settings: dose 3-50 µM; time 7 day
[19] = test system: Mycobacterium tuberculosis; experiment: Additive antibacterial activity against Mycobacterium tuberculosis H37Ra assessed as fractional inhibitory concentration index at 3 to 50 uM measured after 7 days in presence of moxifloxacin by resazurin reduction microplate assay based checkerboard assay; assay type: functional; settings: dose 3-50 µM; time 7 day
N-acetyltransferase Eis [20] = biological target: T1, N-acetyltransferase Eis (Mycobacterium tuberculosis (strain ATCC 25618 / H37Rv), UniProt P9WFK7); experiment: Inhibition of Mycobacterium tuberculosis H37Rv Eis protein using kanamycin as substrate preincubated for 10 mins followed by AcCoA addition and measured every 30 secs for 30 mins
T1 sequence (P9WFK7 whole entry): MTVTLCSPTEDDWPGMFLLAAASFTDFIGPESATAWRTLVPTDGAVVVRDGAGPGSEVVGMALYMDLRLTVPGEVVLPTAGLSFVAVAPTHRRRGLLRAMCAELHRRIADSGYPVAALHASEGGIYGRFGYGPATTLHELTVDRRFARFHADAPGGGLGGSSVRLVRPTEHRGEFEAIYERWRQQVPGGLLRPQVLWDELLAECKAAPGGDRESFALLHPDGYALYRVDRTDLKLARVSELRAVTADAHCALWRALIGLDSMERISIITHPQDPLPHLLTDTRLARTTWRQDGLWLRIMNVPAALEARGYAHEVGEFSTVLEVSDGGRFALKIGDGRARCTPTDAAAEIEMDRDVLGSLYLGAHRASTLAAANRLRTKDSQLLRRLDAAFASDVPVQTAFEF

N-acetyltransferase Eis [21] = biological target: T1, N-acetyltransferase Eis; experiment: Competitive inhibition of Mycobacterium tuberculosis H37Rv Eis protein using varying concentrations of kanamycin as substrate assessed as inhibition constant by Lineweaver-Burk plot analysis
[22] = biological target: T2, N-acetyltransferase Eis (Mycobacterium tuberculosis (strain ATCC 25618 / H37Rv)) (UniProt P9WFK7); experiment: Binding affinity to Mycobacterium tuberculosis H37Rv Eis protein assessed as gibbs free energy
T2 sequence (whole entry): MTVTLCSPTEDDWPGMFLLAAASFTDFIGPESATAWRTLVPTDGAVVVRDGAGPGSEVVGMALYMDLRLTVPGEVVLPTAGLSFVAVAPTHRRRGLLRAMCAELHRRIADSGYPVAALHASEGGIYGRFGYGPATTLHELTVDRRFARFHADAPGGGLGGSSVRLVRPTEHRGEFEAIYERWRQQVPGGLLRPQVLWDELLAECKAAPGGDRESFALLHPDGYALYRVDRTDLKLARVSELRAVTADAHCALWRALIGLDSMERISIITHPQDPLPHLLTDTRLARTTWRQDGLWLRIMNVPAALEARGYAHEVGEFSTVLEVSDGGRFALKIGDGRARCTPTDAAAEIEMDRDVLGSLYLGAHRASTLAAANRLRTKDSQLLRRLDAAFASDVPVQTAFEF

N-acetyltransferase Eis [23] = biological target: T1, N-acetyltransferase Eis; experiment: Inhibition of Mycobacterium tuberculosis H37Rv Eis protein using kanamycin as substrate preincubated for 10 mins followed by AcCoA addition and measured every 30 secs for 20 mins
[24] = compound: COc1ccc(C(=O)CSc2nc3ccccc3c(=N)n2-c2ccccc2)cc1; experiment: Competitive inhibition of Mycobacterium tuberculosis H37Rv Eis protein using varying concentrations of kanamycin as substrate assessed as Km at 6.25 uM by Lineweaver-Burk plot analysis (reference value: 448 +/- 99 microM)
[25] = compound: COc1ccc(C(=O)CSc2nc3ccccc3c(=N)n2-c2ccccc2)cc1; experiment: Competitive inhibition of Mycobacterium tuberculosis H37Rv Eis protein using varying concentrations of kanamycin as substrate assessed as Km at 11 uM by Lineweaver-Burk plot analysis (reference value: 448 +/- 99 microM)
[26] = compound: COc1ccc(C(=O)CSc2nc3ccccc3c(=N)n2-c2ccccc2)cc1; experiment: Competitive inhibition of Mycobacterium tuberculosis H37Rv Eis protein using varying concentrations of kanamycin as substrate assessed as Km at 15 uM by Lineweaver-Burk plot analysis (reference value: 448 +/- 99 microM)
[27] = compound: COc1ccc(C(=O)CSc2nc3ccccc3c(=N)n2-c2ccccc2)cc1; experiment: Competitive inhibition of Mycobacterium tuberculosis H37Rv Eis protein using varying concentrations of kanamycin as substrate assessed as Vmax at 6.25 uM by Lineweaver-Burk plot analysis (reference value: 119 +/- 11 microM)
[28] = compound: COc1ccc(C(=O)CSc2nc3ccccc3c(=N)n2-c2ccccc2)cc1; experiment: Competitive inhibition of Mycobacterium tuberculosis H37Rv Eis protein using varying concentrations of kanamycin as substrate assessed as Vmax at 11 uM by Lineweaver-Burk plot analysis (reference value: 119 +/- 11 microM)
[29] = compound: COc1ccc(C(=O)CSc2nc3ccccc3c(=N)n2-c2ccccc2)cc1; experiment: Competitive inhibition of Mycobacterium tuberculosis H37Rv Eis protein using varying concentrations of kanamycin as substrate assessed as Vmax at 15 uM by Lineweaver-Burk plot analysis (reference value: 119 +/- 11 microM)

Cc1cc(C)c2c(C(=O)NC3CCCCCCC3)c[nH]c2c1
MIC [1]: 4 ng/mL (≈ 0.0134 µM)
MIC [2]: ≥ 250 ng/mL
Cmax [3]: 490 ng/mL
Tmax [4]: 2 h
Cmax [5]: 2470 ng/mL
Tmax [6]: 4 h

CC(C)OC(=O)/C(C#N)=C/c1c[nH]c2ccccc12
MIC [7]: 100 µM (≈ 25.4 µg/mL)

N#C/C(=C\c1c[nH]c2ccccc12)C(=O)NCCN1CCCCC1
MIC [7]: 200 µM (≈ 64.5 µg/mL)

O=C(CSc1nc2sc3c(c2c(=O)n1Cc1ccccc1)CCCC3)c1ccccc1
MIC [7]: > 200 µM

C=CCn1c(SCC(=O)c2ccccc2)nc2ccccc2c1=O
MIC [7]: 200 µM (≈ 67.3 µg/mL)

NNC(=O)c1ccncc1 [ISONIAZID]
MIC [7]: 0.23 µM (≈ 0.0315 µg/mL)

N=c1c2ccccc2nc(SCC(=O)c2ccc(Cl)cc2)n1-c1ccccc1
MIC [7]: > 200 µM

Cc1cc(C)c2c(C(=O)NC3CCCCCC3)c[nH]c2c1
MIC [1]: 4 ng/mL (≈ 0.0141 µM)
MIC [2]: ≥ 250 ng/mL

C=CCn1c(SCC(=O)c2ccc(C)cc2)nc2sc3c(c2c1=O)CCCC3
MIC [7]: > 200 µM

CO[C@H]1/C=C/O[C@@]2(C)Oc3c(C)c(O)c4c(O)c(c(/C=N/N5CCN(C)CC5)c(O)c4c3C2=O)NC(=O)/C(C)=C\C=C\[C@H](C)[C@H](O)[C@@H](C)[C@@H](O)[C@@H](C)[C@H](OC(C)=O)[C@@H]1C [RIFAMPIN]
MIC [7]: 0.01 µM (≈ 0.00823 µg/mL)

COc1ccc(C(=O)CSc2nc3ccccc3c(=N)n2-c2ccccc2)cc1
MIC [7]: 50 µM (≈ 20.1 µg/mL)
MIC [8]: 50 µM
MIC [9]: 50 µM
MIC [10]: 50 µM
MIC [11]: 50 µM
MIC [12]: 0.23 µM
MIC [13]: 0.01 µM
MIC [14]: 8 µM
MIC [15]: 0.4 µM
fractional inhibitory concentration index (FICI) [16]: 2
fractional inhibitory concentration index (FICI) [17]: 2
fractional inhibitory concentration index (FICI) [18]: 2
fractional inhibitory concentration index (FICI) [19]: 3
IC50 (N-acetyltransferase Eis [20]): 11 µM
Ki (N-acetyltransferase Eis [21]): 14.4 µM
deltaG [22]: -7.04 kcal/mol

COc1c(N2C[C@@H]3CCCN[C@@H]3C2)c(F)cc2c(=O)c(C(=O)O)cn(C3CC3)c12 [MOXIFLOXACIN]
MIC [7]: 0.2 µM (≈ 0.0803 µg/mL)

N#CCC(=O)NC(=O)/C(C#N)=C/c1c[nH]c2ccccc12
MIC [7]: > 200 µM

N#C/C(=C\c1c[nH]c2ccccc12)C(=O)NCCCc1ccccc1
MIC [7]: > 200 µM

O=C(CSc1nc2sc3c(c2c(=O)n1Cc1ccccc1)CCCC3)c1ccc(Cl)c(Cl)c1
MIC [7]: > 200 µM

Cc1ccc(C(=O)CSc2nc3sc4c(c3c(=O)n2-c2ccccc2)CCCC4)cc1
MIC [7]: > 200 µM

C=CCn1c(SCC(=O)c2ccc(Cl)c(Cl)c2)nc2sc3c(c2c1=O)CCCC3
MIC [7]: > 200 µM

O=C(CSc1nc2ccccc2c(=O)n1-c1ccccc1)c1ccccc1
MIC [7]: 200 µM (≈ 74.5 µg/mL)

CN1CCCC(CSc2nc(N)c3c4c(sc3n2)CCCC4)C1 (centres undefined)
IC50 (N-acetyltransferase Eis [23]): 0.15 µM

N#C/C(=C\c1c[nH]c2ccccc12)C(=O)N1CCCC1
MIC [7]: > 200 µM

O=C(CSc1nc2ccccc2c(=O)n1-c1ccccc1)c1ccc(Cl)cc1
MIC [7]: 200 µM (≈ 81.4 µg/mL)

N#C/C(=C\c1c[nH]c2cccc([N+](=O)[O-])c12)C(=O)NCCCc1ccccc1
MIC [7]: > 200 µM

B1: N-acetyltransferase Eis (Mycobacterium tuberculosis (strain ATCC 25618 / H37Rv)), P9WFK7 (protein)
chain: MTVTLCSPTEDDWPGMFLLAAASFTDFIGPESATAWRTLVPTDGAVVVRDGAGPGSEVVGMALYMDLRLTVPGEVVLPTAGLSFVAVAPTHRRRGLLRAMCAELHRRIADSGYPVAALHASEGGIYGRFGYGPATTLHELTVDRRFARFHADAPGGGLGGSSVRLVRPTEHRGEFEAIYERWRQQVPGGLLRPQVLWDELLAECKAAPGGDRESFALLHPDGYALYRVDRTDLKLARVSELRAVTADAHCALWRALIGLDSMERISIITHPQDPLPHLLTDTRLARTTWRQDGLWLRIMNVPAALEARGYAHEVGEFSTVLEVSDGGRFALKIGDGRARCTPTDAAAEIEMDRDVLGSLYLGAHRASTLAAANRLRTKDSQLLRRLDAAFASDVPVQTAFEF
Km [24]: 717 µM
Km [25]: 721 µM
Km [26]: 632 µM
Vmax [27]: 112 µM/s
Vmax [28]: 108 µM/s
Vmax [29]: 94 µM/s
